Tests used:
[1] = tested on: dogs with hypertension; assay: Prospective, block-randomized, double-blind clinical trial: systolic blood pressure (SBP) in client-owned dogs with proteinuric CKD; format: in vivo, dog; details: for Average of SBP day 0: baseline; for Average of SBP day 0 / Average of SBP % change day 30 / Average of SBP change day 30 / Average of SBP % change day 60 / Average of SBP change day 60 / Average of SBP % change day 90 / Average of SBP change day 90 / Average of SBP day 30 / Average of SBP day 60 / Average of SBP day 90: dogs hypertensive at day 0, no amlodipine; for Average of SBP % change day 30 / Average of SBP change day 30 / Average of SBP % change day 60 / Average of SBP change day 60 / Average of SBP % change day 90 / Average of SBP change day 90 / Average of SBP % change day 120 / Average of SBP change day 120: change from baseline; for Average of SBP % change day 120 / Average of SBP change day 120: the other drug (telmisartan or enalapril) added after SBP measurement on day 90; for course of average SBP during the period of treatment: up to day 90
Excerpt: A prospective, block-randomized, double-blind clinical trial has been carried out. Fifty-four client-owned dogs with persistent pathologic renal proteinuria have been recruited over a 2-year period.
Azotemic and non-azotemic dogs (N=54) with hypertensive and non-hypertensive CKD have been recruited prospectively from patients presented to the hospital. Dogs included as cases will have confirmed persistent pathologic renal proteinuria due to CKD; in order to be classified as such, fulfillment of the criteria described below will be required.
Abdominal ultrasound findings consistent with CKD (bilaterally small, irregular kidneys) and absence of renal neoplasia have also been documented.
Dogs with suspected or confirmed hyper-adrenocorticism and diabetes mellitus have been included if their disease is considered well controlled with medical therapy.
Once included in the study and based on the presence/degree of azotemia, dogs have been grouped according to the International Renal Interest Society (IRIS) classification scheme for CKD. Those classified as IRIS stages 2-4 (serum creatinine ≥1.4 mg/dL with inappropriately dilute urine [USG<1.030]) have been considered azotemic (AZ), and those classified as IRIS stage 1 (creatinine <1.4 mg/dL) have been considered non-azotemic (non-AZ). Within each of these two groups, dogs will then be stratified according to IRIS recommendations for arterial pressure (AP) substaging. According to this scheme, dogs with persistent average indirect arterial systolic BP<150 mm Hg will be classified as AP0 (minimal risk for target organ damage). Those with persistent average indirect arterial systolic BP≥150 mm Hg have been classified as AP1-3 (at risk for target organ damage). Four groups will thus be identified: • 1. AZ (IRIS Stages 2-4), IRIS substage AP1-3 3. non-AZ (IRIS Stage 1), IRIS substage AP1-3 • 2. AZ (IRIS Stages 2-4), IRIS substage AP0 4. non-AZ (IRIS Stage 1), IRIS substage AP0
Once placed into one of these four groups, each patient has then been assigned, based on a randomized blocking scheme, to receive either enalapril (n=27) or telmisartan (n=27), as described below, with the aim of grouping being to ensure that equal numbers of each are included into the two treatment groups.
On inclusion (day 0), all owners have been required to read/sign a form consenting to their pets' participation in the study. The following baseline data have been collected for each case: full physical examination (performed by one of the study investigators), fundic examination, blood pressure measurement, serum chemistry panel, urinalysis, abdominal ultrasound, UPC and urine culture. The results of screening tests, if performed within 2 weeks of inclusion in the study, may be used as baseline information. Baseline UPC has been defined as the average of two measurements, taken 2 weeks apart, prior to enrollment.
On day 0, each dog has been randomized to receive telmisartan at 1 mg/kg PO q 24 h (TEL group, n=27) or enalapril at 0.5 mg/kg PO q 12 h (ENAL group, n=27) in a double-blind manner. Randomization and dispensation of telmisartan or enalapril has been carried out at the appropriate doses. Owners have been provided with appropriate contact numbers in the event of an emergency. Enalapril is readily available and telmisartan has been provided by Boehringer Ingelheim Vetmedica Inc., St. Joseph, MO in form of the an aqueous solution, which is commercially available as Semintra®.
For dogs that are classified as AP3 (SBP≥180 mmHg; ≥200 mmHg in sighthounds), a calcium channel blocker (CCB; amlodipine, 0.1 mg/kg PO q 24 hours) has been administered contemporaneously. Co-administration of RAAS-inhibitors and CCB is common in human patients, recommended by a panel of veterinary experts and shown to be efficacious in a laboratory model of proteinuria. All dogs have been started or maintained on a commercially available diet formulated to be low in phosphorus and protein, for at least 1 month prior to enrollment. […]

[2] = tested on: dogs; details: cited from earlier work

SMILES	Average of SBP day 0 [1] [mmHg]	Average of SBP % change day 30 ([1]; day 30)	Average of SBP change day 30 ([1]; day 30)	Average of SBP % change day 60 [1]	Average of SBP change day 60 [1]	Average of SBP % change day 90 [1]	Average of SBP change day 90 [1]	Average of SBP % change day 120 ([1]; no amlodipine)	Average of SBP change day 120 ([1]; no amlodipine)	Average of SBP day 30 ([1]; day 30) [mmHg]	Average of SBP day 60 [1] [mmHg]	Average of SBP day 90 [1] [mmHg]	course of average SBP during the period of treatment ([1]; no amlodipine)	further results
CCOC(=O)[C@H](CCc1ccccc1)N[C@@H](C)C(=O)N1CCC[C@H]1C(=O)O [Enalapril]	163.17	+12.90%	+20.00 mmHg	+0.65%	+1.00 mmHg	+1.94%	+3.00 mmHg	−20.65^1%	−32.00^1 mmHg	153.80	153.00	158.00	increased again on days 60 and 90	Average of SBP day 0 ([1]; listed as enalapril): 163 mmHg; SBP increased ([1]; day 30, FIG. 2): more than 10%; Average of SBP day 30 ([1]; day 30, listed as enalapril): 153 mmHg
CCCc1nc2c(C)cc(-c3nc4ccccc4n3C)cc2n1Cc1ccc(-c2ccccc2C(=O)O)cc1 [Telmisartan]	163.57	−18.88%	−31.50 mmHg	−18.42%	−31.00 mmHg	−22.58%	−37.00 mmHg	−42.70^2%	−76.00^2 mmHg	140.86	138.60	132.33	constantly lowered	Average of SBP day 0 ([1]; listed as telmisartan): 163 mmHg; absolute average SBP compared to enalapril treated dogs ([1]; day 0 to day 90, no amlodipine, FIG. 4): much lower; average change of SBP, reduction compared to enalapril-treated dogs ([1]; day 30): at least 30 mmHg; reduction in SBP ([1]; day 30, FIG. 2): ~20%; average SBP change from baseline compared to enalapril ([1]; day 30, day 60 and day 90, dogs with SBP of at least 150 mmHg at day 0 which received amlodipine, FIG. 3): greater; average change (reduction) in SBP compared to enalapril treated dogs ([1]; day 30 to day 90, no amlodipine, FIGS. 1 and 2): greater; Average of SBP day 90 ([1]; listed as telmisartan): 132 mmHg; effect on blood pressure ([2]; 1 mg/kg daily dose): have an effect on blood pressure; vascular and renal excretory effects ([2]; daily oral dose): produces vasodilation, diuresis and natriuresis without influencing potassium or creatinine excretion

From patent publication US12605366B2, “Telmisartan for the treatment of hypertension in dogs” (BOEHRINGER INGELHEIM VETMEDICA GMBH, priority 2019, dated 2026)
